The results in this text go back to patent publication US9125930B2, “EGFR aptamer inhibitor for use in therapy and diagnosis” (CONSIGLIO NAZIONALE DELLE RICERCHE, priority 2010, dated 2015).

Broadly, the Kd is a measure of binding affinity in units of concentration.

For data set [1], the system named is A549 cells. Kind of data set: Cell viability assay, A549 cells. To be noted: dose-dependent experiments, 0.1-10 μM. It counts as cell-based, human. The method, then: Cell viability was assessed with CellTiter 96® AQueous One Solution Cell Proliferation Assay (Promega, Madison, Wis.) according to according to the supplier's instructions. […] The optical density (OD) was measured using a Multilabel Counter (Bio-Rad) at a wavelength of 490 nm and cell viability was calculated by the following formula: Cell viability (%)=(OD treated cells/OD control cells)×100%. FACS Analysis

The test system of data set [2] is A431 tumors. Kind of data set: Tumor growth in A431 mouse xenograft. It counts as in vivo. To be noted: 200 pmoles intratumoral, three times a week for two weeks. The method, then: Athymic nude mice (nu/nu) were maintained in a sterile environment according to guidelines for Animal Care. Mice were inoculated with either 3×10^6 (in 100 μl) in vitro propagated A431 cells subcutaneously injected into each flank. Approximately 24 non-necrotic tumors for each tumor type, of about 1 cm in diameter, were randomly divided into three groups of eight mice per treatment group as follows: group 1, no treatment; group 2, treated with scrambled RNA as a negative control (200 pmols/injection); group 3, treated with CL4 42-81 (200 pmols/injection). Compounds were injected intra-tumorally in 100-1 μl volumes three times a week for two weeks. Day 0 marks the first day of injection. The aptamers may also be administered systemically, in particular when optimized by addition of polyethylene glycol (PEG).
The volume injections are small enough to preclude the compounds being forced inside the cells due to a nonspecific high-pressure injection. Tumors were measured every 3 days with calipers in three dimensions. The following formula was used to calculate tumor volume: VT=(W×L×H)×0.5236 (W, the shortest dimension; L, the longest dimension; H, the intermediate dimension). The growth curves are plotted as the means tumor volume±s.e.m. Statistical analysis of tumor size data was conducted using a one-way ANOVA. A P-value of 0.05 or less was considered to indicate a significant difference. […]

The subject of data set [3] is A549 cells. Description: Apoptosis assay by PI staining and FACS. To be noted: A549, 24 hs or 48 hs. Details: dose or concentration left out as unconfirmed. In kind it is cell-based, human. The procedure:
For apoptosis assay, DNA content analysis was performed by staining with propidium iodide (PI) and analyzing cells by flow cytometry (FACS).
[…] Cells were incubated with 2 μg/ml propidium iodide (PI, Sigma, St. Louis, Mo.) for 30 min at 4° C. and recovered. The relative proportion of cells with DNA content indicative of apoptosis (ipoploid) was determined by FACS.

Data set [4] concerns the target EGFR (Homo sapiens, UniProt P00533). Description: Immunoblot of EGF-dependent EGFR phosphorylation in A549 cells. Details: endogenous in cells; host or cells: A549. To be noted: 200 nM aptamer, following 5 min of EGFR stimulation. It counts as cell-based. The procedure:
[…] The aptamers were subjected to a short denaturation-renaturation step (85° C. for 5 min, snap-cooled on ice for 2 min, and allowed to warm up to 37° C.) before each treatment. To prepare cell extracts, cells were washed twice in ice-cold PBS, and lysed in buffer A (50 mM Tris-HCl pH 8.0 buffer containing 150 mM NaCl, 1% Nonidet P-40, 2 mg/ml aprotinin, 1 mg/ml pepstatin, 2 mg/ml leupeptin, 1 mM Na3VO4). Protein concentration was determined by the Bradford assay using bovine serum albumin as the standard. The cell lysates were subjected to SDS-PAGE. Gels were electroblotted into polyvinylidene difluoride membranes (Millipore Co., Bedford, Mass.), and filters were probed with the indicated primary antibodies: anti-EGFR and anti-phospho-EGFR (Tyr1062), anti-phospho-44/42 MAP kinase (E10) (also indicated as p-Erk), anti-phospho-Akt, anti-Akt and anti-phospho-STAT3 (Tyr705), anti-ErbB2 (all from Cell Signaling, Beverly, Mass., United States); anti-Erk1, anti-EGFR, anti-ErbB3, anti-ErbB4 (C-16) (Santa Cruz Biotechnology, California, United States); anti-α-αtubulin (DM 1A) (Sigma, St. Louis, Mo.).
Proteins were visualized with peroxidase-conjugated secondary antibodies using the enhanced chemiluminescence system (GE Healthcare Bio-Sciences, Uppsala, Sweden). […]
Background: Immunoblotting shows a protein as a band on a membrane.

Data set [5] deals with A549 cells. Kind of data set: Binding of [32P]-labeled aptamer on A549 cells. The arrangement: species or system human. The note with it: binding to A549 target cells. The procedure:
Binding experiments were performed with 5′-[^32P]-labeled RNA. For labeling 2′-F-Py RNAs were 5′-end dephosphorylated using bacterial alcaline phosphatase (Invitrogen, Carlsbad, Calif.) before [^32P]-5′-end-labeled using T4 kinase (Invitrogen) and γ-[^32P]-ATP (6×10^3 Ci/mmol, GE Healthcare Bio-Sciences, Uppsala, Sweden) according to the supplier's instructions.
For binding experiments on cells, 3.5×10^4 cells were plated in 24-well plates in triplicate and were incubated with CL4 42-81 aptamer the scrambled sequence used as a negative control at 100 nM concentration in 200 μl of DMEM serum free for 20 min at RT in the presence of 100 μg/ml polyinosine as a nonspecific competitor (Sigma, St. Louis, Mo.). After five washings with 500 μl DMEM, bound sequences were recovered in 300 μl of SDS 1%, and the amount of radioactivity recovered was counted.

Take `COc1cc2ncnc(Nc3ccc(F)c(Cl)c3)c2cc1OCCCN1CCOCC1` [gefitinib, reference compound]: the “sensitivity of A549 cell viability” value in data set [1] was “resistant”. For “scrambled aptamer: scrambled aptamer used as negative control: 5′ UUCGUACCGGGUAGGUUGGCUUGCACAUAGAACGUGUCA 3′ (SEQ ID NO: 2) (listed as RNA, chemistry not given here) [reference compound]”, the tumor volume entry in data set [2] was “not observed”. The “effect on percentage of apoptotic cells” value in data set [3] is “No effect”. Further, in data set [4], the “inhibition of EGF-dependent phosphorylation of EGFR” value is “No effect”.

B1: CL4: entire 92 nt aptamer generated by differential cell-SELEX on A549 cells (SEQ ID NO: 4), parent of CL4 42-81 (nucleic acid)
chain: GGGAGACAAGAAUAAACGCUCAACGACACGUUGCCAGCCGGAGCCUUAGUAACGUGCUUUGAUGUCGAUUCGACAGGAGGCUCACAACAGGC
modifications: listed as RNA, chemistry not given here
The molecule B1 registered a Kd in data set [5] of 0.046 µM.
